What is called Papp A→B is how fast a substance crosses the layer from the apical side. Lower therefore signals poor permeation. One may read the IC50 as the midpoint of a concentration-inhibition curve.

SMILES strings stand for the structures. Where two headings read alike, the source gives them in different places.

The test system of one data set is MDA-MB-436 breast cancer. In words: MTT assay, proliferation inhibition. The data set is classed as cell-based. The settings on record: Homo sapiens, read-out: Proliferation inhibition rate. An excerpt: (§1) 1. Cytotoxicity Assay Using Human Tumor Cell Lines
(§2) Paclitaxel was used as the positive drug.
Background: Tetrazolium dyes change colour on reduction, which living cells bring about.

For another data set, the system named is MCF-7 breast cancer. In words: MTT assay, proliferation inhibition. Format: cell-based. The settings on record: Homo sapiens, MCF7, read-out: Proliferation inhibition rate.
Description: as §1, §2

Data set [1] deals with A549 non-small cell lung cancer. As to the kind of experiment: MTT assay, proliferation inhibition. Format: cell-based. The following applies: Homo sapiens, read-out: Proliferation inhibition rate.
Description: as §1, §2

The subject of a further data set is K562 leukemia. As to the kind of experiment: MTT assay, proliferation inhibition. The following applies: Homo sapiens, read-out: Proliferation inhibition rate. Format: cell-based.
Description: as §1, §2

The subject of data set [2] is NCI-H460 non-small cell lung cancer. As to the kind of experiment: MTT assay, proliferation inhibition. The data set is classed as cell-based. The following applies: Homo sapiens, read-out: Proliferation inhibition rate.
Description: as §1, §2

The subject of the next data set is HL60 leukemia. In words: MTT assay, proliferation inhibition. The settings on record: Homo sapiens, HL-60, read-out: Proliferation inhibition rate. The data set is classed as cell-based.
Description: as §1, §2

In another data set the test system is A2780 ovarian cancer. In words: MTT assay, proliferation inhibition. Format: cell-based. The following applies: Homo sapiens, read-out: Proliferation inhibition rate.
Description: as §1, §2

The nature of data set [3]: MTT assay, proliferation inhibition. The following applies: Homo sapiens, LN-18 gastric cancer, read-out: Proliferation inhibition rate. The data set is classed as cell-based.
Description: as §1, §2

For the next data set, the system named is HT29 colon cancer. As to the kind of experiment: MTT assay, proliferation inhibition. Format: cell-based. The following applies: Homo sapiens, HT-29, read-out: Proliferation inhibition rate.
Description: as §1, §2

The next data set has as its system B16 melanoma. In words: MTT assay, proliferation inhibition. Format: cell-based. The following applies: read-out: Proliferation inhibition rate.
Description: as §1, §2

For a further data set, the system named is BGC-823 gastric cancer. In words: MTT assay, proliferation inhibition. Format: cell-based. The settings on record: Homo sapiens, read-out: Proliferation inhibition rate.
Description: as §1, §2

Another data set has as its system HeLa cervical cancer. In words: MTT assay, proliferation inhibition. Format: cell-based. The settings on record: Homo sapiens, read-out: Proliferation inhibition rate.
Description: as §1, §2

The next data set has as its system DU145 prostate cancer. In words: MTT assay, proliferation inhibition. Format: cell-based. The settings on record: Homo sapiens, DU-145, read-out: Proliferation inhibition rate.
Description: as §1, §2

The next data set deals with LNCaP prostate cancer. In words: MTT assay, proliferation inhibition. Format: cell-based. The following applies: Homo sapiens, read-out: Proliferation inhibition rate.
Description: as §1, §2

The next data set concerns HCT 116 colon cancer. As to the kind of experiment: MTT assay, proliferation inhibition. Format: cell-based. The following applies: Homo sapiens, read-out: Proliferation inhibition rate.
Description: as §1, §2

In a further data set the test system is A375 melanoma. As to the kind of experiment: MTT assay, proliferation inhibition. The data set is classed as cell-based. The following applies: Homo sapiens, A-375, read-out: Proliferation inhibition rate.
Description: as §1, §2

A short description of data set [4]: Caco-2 cell monolayer membrane transport assay. The following applies: human, A-B; for Papp A→B: Caco-2, Papp A-B; for recovery: Caco-2, Recovery rate in mass. On the technique in general: Caco-2 monolayers are a common model of the intestinal barrier.
Description: Caco-2 Cell Monolayer Membrane Transport Assay
Human-derived colorectal adenocarcinoma cell line Caco-2 cell monolayer model was used to study the bidirectional transport of the target compounds from the apical (AP) side to the basolateral (BL) side and from BL side to AP side. HPLC was used for quantitative analysis to calculate transport parameters, apparent permeability coefficient (Papp) and the efflux ratio.
The subject of data set [5] is breast cancer cell line MCF-7. In words: IC50 values on breast cancer cell line MCF-7. The data set is classed as cell-based. The settings on record: Homo sapiens. An excerpt:
From the activity evaluation data of the above-mentioned preliminary screen, it can be seen that the series of taxanes derivatives synthesized in the present invention have activity (although the activity of PCMI-43 is weakened). Afterward, most of the compounds are picked up from these derivatives to examine their IC50 values on breast cancer cell line MCF-7. Paclitaxel is used as the positive control drug. Experiments for each compound were independently repeated for three times and multiple holes were used in each experiment. The exposure time of drugs was 72 hours.

Where [6] appears, read: Mean, Caco-2, mean of two samples.
The mark [7] stands for this setting: MCF7, 72 h, read-out: MCF-7(IC50, nM).

As for `CO[C@H]1C(=O)[C@]2(C)[C@@H](OC(=O)N(C)C)C[C@H]3OC[C@@]3(OC(C)=O)[C@H]2[C@H](OC(=O)c2ccccc2)[C@]2(O)C[C@H](OC(=O)[C@H](O)[C@@H](NC(=O)c3ccccc3)c3ccccc3)C(C)=C1C2(C)C` [PCMI-32], the inhibition at 1 µM in the data set with MDA-MB-436 breast cancer worked out at 74.4%; with MCF-7 breast cancer, 102%; in data set [1], 74.5%; in the data set with K562 leukemia, 91%; in data set [2], 86.6%; in the data set on HL60 leukemia it was 97.8%. Moreover, the inhibition at 1 µM was found to be 95.8% with A2780 ovarian cancer; 92.2% in data set [3]; 89.8% in the data set with HT29 colon cancer; 77.8% with B16 melanoma; 95.1% with BGC-823 gastric cancer; 103% in the data set with HeLa cervical cancer. Also, the inhibition at 1 µM with DU145 prostate cancer was 87.5%; with LNCaP prostate cancer it was 83.4%; in the data set on HCT 116 colon cancer it was 57.7%; in the data set on A375 melanoma, 90.4%. Also, the Papp A→B in [4] (Sample-01, Caco-2, Sample-01) amounted to 3.16 ×10⁻⁶ cm/s; in data set [4] (Sample-02, Caco-2, Sample-02), 3.38 ×10⁻⁶ cm/s. Further, the recovery in data set [4] (setting [6]) was 81.9%; in data set [4] (Sample-01, Caco-2, Sample-01) it was 82.1%; in [4] (Sample-02, Caco-2, Sample-02), 81.6%. In addition, the IC50 in data set [5] (setting [7]) was 64.67 ± 0.18 nM.

Consider `CO[C@H]1C(=O)[C@]2(C)[C@@H](OC(=O)N(C)C)C[C@H]3OC[C@@]3(OC(C)=O)[C@H]2[C@H](OC(=O)c2ccccc2)[C@]2(O)C[C@H](OC(=O)[C@H](O)[C@@H](NC(=O)OC(C)(C)C)c3ccccn3)C(C)=C1C2(C)C` [PCMI-33], for which the inhibition at 1 µM with MDA-MB-436 breast cancer came out at 76.2%; in the data set on MCF-7 breast cancer, 83.5%; in data set [1], 74.1%; in the data set on K562 leukemia, 91.1%; in data set [2] it was 87.8%; in the data set with HL60 leukemia, 97.8%. For the same compound, the inhibition at 1 µM in the data set with A2780 ovarian cancer turned out to be 94.7%; in data set [3], 93.2%; in the data set with HT29 colon cancer, 89.1%; in the data set with B16 melanoma, 81.8%; in the data set on BGC-823 gastric cancer it was 94.1%; in the data set on HeLa cervical cancer it was 103%. Further, the inhibition at 1 µM with DU145 prostate cancer amounted to 86.3%; in the data set on LNCaP prostate cancer, 83.6%; in the data set with HCT 116 colon cancer, 56%; with A375 melanoma, 90.3%. For the same compound, the apparent permeability from apical to basolateral (Papp A→B) stood at 4.27 ×10⁻⁶ cm/s in data set [4] (Sample-01, Caco-2, Sample-01) and 4.54 ×10⁻⁶ cm/s in data set [4] (Sample-02, Caco-2, Sample-02). Also, the recovery in data set [4] (setting [6]) stood at 94.9%; in data set [4] (Sample-01, Caco-2, Sample-01) it was 95.8%; in data set [4] (Sample-02, Caco-2, Sample-02), 94%. Also, the IC50 in data set [5] (setting [7]) stood at 46.63 ± 0.14 nM.

As for `CO[C@H]1C(=O)[C@]2(C)[C@@H](OC(=O)N(C)C)C[C@H]3OC[C@@]3(OC(C)=O)[C@H]2[C@H](OC(=O)c2ccccc2)[C@]2(O)C[C@H](OC(=O)[C@H](O)[C@@H](NC(=O)N(C)C)c3ccccc3)C(C)=C1C2(C)C` [PCMI-35], the inhibition at 1 µM in the data set on MDA-MB-436 breast cancer is 80.2%; with MCF-7 breast cancer, 92.5%; in data set [1], 76.2%; with K562 leukemia it was 92.7%; in data set [2], 86.9%; in the data set on HL60 leukemia it was 97.5%. The inhibition at 1 µM with A2780 ovarian cancer worked out at 94.2%; in [3], 93.5%; with HT29 colon cancer, 87.3%; with B16 melanoma, 80.3%; with BGC-823 gastric cancer, 95.8%; with HeLa cervical cancer it was 99.9%. Moreover, the inhibition at 1 µM in the data set with DU145 prostate cancer worked out at 89.8%; in the data set with LNCaP prostate cancer, 85.3%; in the data set on HCT 116 colon cancer, 65.5%; in the data set on A375 melanoma it was 95.3%. The apparent permeability from apical to basolateral (Papp A→B) in data set [4] (setting [6]) worked out at 3.04 ×10⁻⁶ cm/s; in data set [4] (Sample-01, Caco-2, Sample-01), 3.21 ×10⁻⁶ cm/s; in data set [4] (Sample-02, Caco-2, Sample-02), 2.87 ×10⁻⁶ cm/s. For the same compound, the recovery in data set [4] (setting [6]) turned out to be 91.3%; in [4] (Sample-01, Caco-2, Sample-01), 95%; in data set [4] (Sample-02, Caco-2, Sample-02), 87.6%. Besides, the IC50 in data set [5] (MCF7, MCF-7, exposure 72 hours, mean±SD of three independent experiments, read-out: MCF-7(IC50)) was 4.28 ± 0.08 nM.
